{"source": "patent EP1228058B1", "about": "“BENZOPYRANYL GUANIDINE DERIVATIVES, PROCESS FOR PREPARATION THEREOF, AND PHARMACEUTICAL COMPOSITIONS CONTAINING THEM” (Dongbu Hannong Chemical Co., Ltd., priority 1999, dated 2001)", "assay_type_in_all_cases": "in vivo", "key": {"[1]": {"tested_on": "angiogenesis induced by Angiotensin II in Sprague-Dawley rats", "assay": "Suppression of Angiotensin II induced angiogenesis in implanted sponge (99mTc-DTPA clearance)", "details": "AII (100nmol) + test drug, 7 days after injection"}, "diabetic rats": {"tested_on": "diabetic rats", "assay": "Effects on MNCV (motor nerve conduction velocity) in diabetic rats", "set-up": "MNCV (sec): unit not given here", "details": "30 mg/Kg, orally once a day", "protocol": "Diabetes was induced with i.p. (intra peritoneum) injection of streptozocin (65 mg/Kg) in rats, then test compounds dissolved in 2 ml of media (physiological saline: ethanol: tween 80 = 8:1:1), were orally administered once a day. Rats were anesthetized with halothane, then the sciatic nerve was exposed to measure MNCV. The nerve was stimulated at two points. The first stimulus electrode was inserted at proximal end, and second stimulating electrode was inserted at the sciatic notch. The coaxial needle electrode was inserted into interdigital muscle, then the muscle action potential induced by two point stimulation. The conduction velocity was calculated by dividing the distance between two stimulus points by the latency difference. Lipoic acid (100 mg/Kg) was used in comparison with the compound of formula 1 in recovery of impaired MNCV in diabetic rats. The recovery (%) of MNCV was calculated according to the following mathematical formula 4. [Mathematical formula 4] Recovery(%) =(MNCV of treated group - MNCV of diabetic rats)/(MNCV of normal control-MNCV of diabetic rats)x100 [formula]"}, "newborn rats": {"tested_on": "newborn rats", "assay": "Protection against hypoxic brain injury in newborn rats (proton MRS)", "details": "50mg/Kg intraperitoneally 1 hr before hypoxia; proton MRS 1 day after injury", "description": "Focal, hypoxic brain injury model in newborn rats are being most frequently used to study infant asphyxia, because whose maturity of brain is similar to that of human infant, and it is easy to get enough number of animals required for the determination of effects. It was reported that the lipid peak was increased in MRS (magnetic resonamce spectroscopy) by ischemic neuronal cell injury due to the destruction of cell membrane including blood-brain barrier [A. Bizzi et. al., Magnetic Resonance Imagin 14 581-592 (1996)], and also the concentration of lipid and apotosis are closely correlated to apotosis [Van der A. Toorn et al., Magnetic Resonamce in Medicine, 36 , 914-922 (1996)]. N-Acetylaspartae (NAA) and creatine (Cr) are markers of neuronal cells. Then it was confirmed that the value of lipid/NAA (N-acetylaspartae) and lipid/Cr (creatine) are correlated with the morphological change and severity of apoptosis on hypoxic brain damage.\nNew born rats (within 7 days, 10-15 g) were placed in hypoxic chamber for 2 hr to induce hypoxia, and test compounds were intraperitoneally injected before 1 hr of hypoxia. Proton MRS was obtained at 1 day after brain injury, then the value of lipid/NAA and lipid/Cr were determined."}}}
{"smiles": "COC(OC)[C@@]1(C)Oc2ccc([N+](=O)[O-])cc2[C@H](NC(=NC#N)NCc2ccccc2)[C@H]1O", "note": "[Example 24, (2S, 3R, 4S)-N''-cyano-N-(6-nitro-3,4-dihydro-3-hydroxy-2-methyl-2-dimethoxymethyl-2H-benzopyran-4-yl)-N'-benzylguanidine]", "values": [{"measurement": "Clearance of ^99mTC (%)", "setting": "[1]; Dose 0.1 mg/kg (p.o)", "result": 26.90, "unit": "%"}, {"measurement": "Clearance of ^99mTC (%)", "setting": "[1]; Dose 0.3 mg/kg (p.o)", "result": 18.22, "unit": "%"}, {"measurement": "Clearance of ^99mTC (%)", "setting": "[1]; Dose 1.0 mg/kg (p.o)", "result": 3.38, "unit": "%"}]}
{"smiles": "COC(OC)[C@@]1(C)Oc2ccc(N)cc2[C@@H](NC(=NC#N)NCc2ccccc2)[C@@H]1O", "note": "[Example 40, (2S, 3S, 4R)-N''-cyano-N-(6 - amino-3,4-dihydro-3-hydroxy-2-methyl-2-dimethoxymethyl-2H-benzopyran-4-yl)-N'-benzylguanidine]", "values": [{"measurement": "MNCV (sec)", "setting": "diabetic rats; streptozocin diabetic rats", "result": 47.756}, {"measurement": "Recovery (%)", "setting": "diabetic rats; MNCV, diabetic rats", "result": 63.0, "unit": "%"}, {"measurement": "Lipid/Cr", "setting": "newborn rats", "result": 2.33}, {"measurement": "Lipid/NAA", "setting": "newborn rats", "result": 2.51}]}
